Experimental findings from ChEMBL document CHEMBL1126004, “Synthesis and resolution of 7-fluorotryptophans” (Bioorg Med Chem Lett, 1991) are described below.

This assay is described as follows: Compound was evaluated for relative ratio (Kcat/Km) between catalyst constant (Kcat) and Michaelis-Menten constant (Km) in a reaction with tryptophan indole-lyase (tryptophanase) from Escherichia coli.

For the compound `N[C@@H](Cc1c[nH]c2ccccc12)C(=O)O`, the k cat/Km was 100%.

In the case of `N[C@@H](Cc1c[nH]c2c(F)ccc(F)c12)C(=O)O`, the k cat/Km is 6%.

With `N[C@@H](Cc1c[nH]c2c(F)cc(F)cc12)C(=O)O`, the k cat/Km was found to be 30%.

In the case of `N[C@@H](Cc1c[nH]c2c(F)cccc12)C(=O)O`, the k cat/Km turned out to be 14%.
